Assay results reported in US20220242870A1, “HETEROCYCLE-FUSED PYRIMIDINE DERIVATIVE AND USE THEREOF” (VORONOI Inc., priority 2019, published 2022).

Legend:
[1] = target: T1, human FLT3-ITD enzyme (Homo sapiens, UniProt P36888); assay: FLT3 enzyme inhibitory ability (ADP-Glo kinase assay); type: biochemical; details: human FLT3-ITD enzyme 10 ng, ATP 10 μM, 25° C. 1 hour
T1 sequence (P36888 1-993): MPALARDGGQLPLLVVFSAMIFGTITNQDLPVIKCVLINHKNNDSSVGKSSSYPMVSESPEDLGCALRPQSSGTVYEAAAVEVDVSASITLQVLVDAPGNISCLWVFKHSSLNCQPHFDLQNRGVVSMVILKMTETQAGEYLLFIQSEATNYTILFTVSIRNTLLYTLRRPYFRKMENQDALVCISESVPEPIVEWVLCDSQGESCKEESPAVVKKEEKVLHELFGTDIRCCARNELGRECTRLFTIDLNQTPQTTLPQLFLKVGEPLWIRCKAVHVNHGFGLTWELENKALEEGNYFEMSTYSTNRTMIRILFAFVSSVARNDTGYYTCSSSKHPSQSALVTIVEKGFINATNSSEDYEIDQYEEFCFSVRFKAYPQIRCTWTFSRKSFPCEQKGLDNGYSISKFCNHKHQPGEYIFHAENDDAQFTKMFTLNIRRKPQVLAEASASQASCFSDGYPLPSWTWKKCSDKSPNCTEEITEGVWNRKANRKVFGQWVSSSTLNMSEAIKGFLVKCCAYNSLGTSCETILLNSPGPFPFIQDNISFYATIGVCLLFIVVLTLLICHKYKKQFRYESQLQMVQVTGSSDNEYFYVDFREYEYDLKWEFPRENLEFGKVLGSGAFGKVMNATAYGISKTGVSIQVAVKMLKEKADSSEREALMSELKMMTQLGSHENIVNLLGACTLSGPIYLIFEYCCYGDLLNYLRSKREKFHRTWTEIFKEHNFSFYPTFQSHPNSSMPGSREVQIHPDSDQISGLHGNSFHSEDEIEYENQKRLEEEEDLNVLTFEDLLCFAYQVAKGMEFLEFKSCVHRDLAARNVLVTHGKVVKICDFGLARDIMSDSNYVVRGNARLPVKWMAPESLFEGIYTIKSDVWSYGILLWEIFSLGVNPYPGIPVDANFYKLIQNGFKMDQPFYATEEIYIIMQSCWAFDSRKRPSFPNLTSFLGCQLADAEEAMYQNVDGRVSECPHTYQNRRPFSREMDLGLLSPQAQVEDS
In short: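 Purified human FLT3-ITD (10 ng) with 10 μM ATP and specific substrate in 40 mM Tris-HCl pH 7.4, 20 mM MgCl2, 0.5 mg/mL BSA, 50 μM DTT, 1 h at 25 °C. ADP formation read by ADP-Glo luminescence; IC50 (nM) versus solvent-treated control.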

[2] = tested on: MCF-7 cells; assay: Breast cancer cell line proliferation inhibitory activity (CellTiter-Glo 2.0); type: cell-based; details: Homo sapiens, MCF7, 120 hours
In short: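 MCF-7 cells exposed to a 12-point, 3-fold dilution series (final 0.00005–10 μM) for 120 h at 37 °C. Viability read by CellTiter-Glo 2.0 luminescence, expressed as percent of vehicle-treated cells. GI50 (nM) derived from the curves.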

[3] = tested on: RS4;11 cells; assay: AML cell proliferation inhibitory activity (CellTiter-Glo); type: cell-based; details: Homo sapiens, 72 hours
In short: (§1)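 RS4;11 and MV4-11 cells in RPMI-1640 with 10% FBS, seeded 24 h before treatment, then exposed 72 h to 12 three-fold dilutions (0.3 nM–50 μM final). Viability by CellTiter-Glo luminescence relative to solvent control; GI50 from triplicate experiments.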

[4] = tested on: MV4-11 cells; assay: as above; type: cell-based; details: Homo sapiens, 72 hours
In short: as §1

[5] = target: T2, human GST-HPK1 (1-346) (Homo sapiens, UniProt Q92918); assay: HPK1 enzyme inhibitory ability (ADP-Glo kinase assay); type: biochemical; details: human GST-HPK1 3 ng, ATP 3 uM, 25° C. 2 hours
T2 construct: purified human GST-HPK1 (1-346, Signalchem) enzyme; purchased Signalchem
T2 sequence (Q92918 1-346): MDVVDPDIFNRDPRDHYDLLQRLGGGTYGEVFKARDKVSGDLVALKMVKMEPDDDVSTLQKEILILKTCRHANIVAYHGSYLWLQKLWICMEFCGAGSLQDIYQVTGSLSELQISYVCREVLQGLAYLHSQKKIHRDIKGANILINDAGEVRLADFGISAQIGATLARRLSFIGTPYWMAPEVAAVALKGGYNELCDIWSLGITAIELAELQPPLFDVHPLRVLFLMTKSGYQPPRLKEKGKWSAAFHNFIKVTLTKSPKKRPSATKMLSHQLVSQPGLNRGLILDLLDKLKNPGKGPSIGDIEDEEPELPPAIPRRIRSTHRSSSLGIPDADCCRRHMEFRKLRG
In short: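 Human GST-HPK1(1-346), 3 ng, reacted with 3 uM ATP and specific substrate in 40 mM Tris-HCl pH 7.4, 20 mM MgCl2, 0.5 mg/mL BSA, 50 uM DTT for 2 h at 25° C. ADP-Glo luminescence read; IC50 (nM) relative to untreated solvent control.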

Row | Compound | IC50 [1] [µM] | GI50 [2] [µM] | GI50 [3] [µM] | GI50 [4] [µM] | IC50 [5] [µM]
1 | CN1CCN(C2CCN(c3ccc(Nc4nc(N5N=CCC5c5ccccc5)c5sccc5n4)cc3)CC2)CC1 (centres unmarked) [Example 7, N-(4-(4-(4-methylpiperazin-1-yl)piperidin-1-yl)phenyl)-4-(5-phenyl-4,5-dihydro-1H-pyrazol-1-yl)thieno[3,2-d]pyrimidin-2-amine] | ≥ 0.25 | > 0.5 | > 0.5 | 0.25 to 0.5 | > 0.5
2 | C[C@@H]1CN(Cc2cc(Nc3nc(N4N=CCC4c4ccccc4)c4sccc4n3)cc(C3CC3)c2)C[C@H](C)N1 (stereo partly drawn) [Example 12, N-(3-cyclopropyl-5-(((3R,5S)-3,5-dimethylpiperazin-1-yl)methyl)phenyl)-4-(5-phenyl-4,5-dihydro-1H-pyrazol-1-yl)thieno[3,2-d]pyrimidin-2-amine] | > 0.5 | > 0.5 | > 0.5 | 0.25 to 0.5 | > 0.5
3 | CN1CCC(NC(=O)c2ccc(Nc3nc(N4N=CCC4c4ccccc4)c4sccc4n3)cc2)CC1 (centres unmarked) [Example 19, N-(1-methylpiperidin-4-yl)-4-((4-(5-phenyl-4,5-dihydro-1H-pyrazol-1-yl)thieno[3,2-d]pyrimidin-2-yl)amino)benzamide] | ≥ 0.25 | > 0.5 | > 0.5 | ≥ 0.25 | > 0.5
4 | CN1CCN(c2ccc(Nc3nc(N4N=CCC4C4CCCCC4)c4sccc4n3)cc2)CC1 (centres unmarked) [Example 30, 4-(5-cyclohexyl-4,5-dihydro-1H-pyrazol-1-yl)-N-(4-(4-methylpiperazin-1-yl)phenyl)thieno[3,2-d]pyrimidin-2-amine] | > 0.5 | > 0.5 | ≥ 0.25 | 0.25 to 0.5 | > 0.5
5 | CN1CCN(c2ccc(Nc3nc(N4N=CCC4c4ccc5ccccc5c4)c4sccc4n3)cc2)CC1 (centres unmarked) [Example 31, N-(4-(4-methylpiperazin-1-yl)phenyl)-4-(5-(naphthalen-2-yl)-4,5-dihydro-1H-pyrazol-1-yl)thieno[3,2-d]pyrimidin-2-amine] | > 0.5 | > 0.5 | > 0.5 | > 0.5 | > 0.5
6 | CN1CCN(c2ccc(Nc3nc(N4N=CCC4c4cccnc4)c4sccc4n3)cc2)CC1 (centres unmarked) [Example 34, N-(4-(4-methylpiperazin-1-yl)phenyl)-4-(5-(pyridin-3-yl)-4,5-dihydro-1H-pyrazol-1-yl)thieno[3,2-d]pyrimidin-2-amine] | > 0.5 | > 0.5 | > 0.5 | > 0.5 | > 0.5
7 | CN1CCN(c2ccc(Nc3nc(N4N=CCC4c4ccncc4)c4sccc4n3)cc2)CC1 (centres unmarked) [Example 35, N-(4-(4-methylpiperazin-1-yl)phenyl)-4-(5-(pyridin-4-yl)-4,5-dihydro-1H-pyrazol-1-yl)thieno[3,2-d]pyrimidin-2-amine] | > 0.5 | > 0.5 | > 0.5 | 0.25 to 0.5 | > 0.5
8 | CN1CCN(c2ccc(Nc3nc(N4N=CCC4c4cccc(F)c4)c4sccc4n3)cc2)CC1 (centres unmarked) [Example 36, 4-(5-(3-fluorophenyl)-4,5-dihydro-1H-pyrazol-1-yl)-N-(4-(4-methylpiperazin-1-yl)phenyl)thieno[3,2-d]pyrimidin-2-amine] | > 0.5 | – | > 0.5 | ≥ 0.25 | > 0.5

Second part, the compound after the results:

Row | IC50 [1] [µM] | GI50 [2] [µM] | GI50 [3] [µM] | GI50 [4] [µM] | IC50 [5] [µM] | Compound
9 | > 0.5 | > 0.5 | > 0.5 | > 0.5 | > 0.5 | CN1CCN(c2ccc(Nc3nc(N4N=CCC4c4ccccc4)c4sccc4n3)cn2)CC1 (centres unmarked) [Example 5, N-(6-(4-methylpiperazin-1-yl)pyridin-3-yl)-4-(5-phenyl-4,5-dihydro-1H-pyrazol-1-yl)thieno[3,2-d]pyrimidin-2-amine]
10 | > 0.5 | > 0.5 | > 0.5 | > 0.5 | > 0.5 | CN1CCN(C(=O)c2ccc(Nc3nc(N4N=CCC4c4ccccc4)c4sccc4n3)cc2)CC1 (centres unmarked) [Example 11, (4-methylpiperazin-1-yl)(4-((4-(5-phenyl-4,5-dihydro-1H-pyrazol-1-yl)thieno[3,2-d]pyrimidin-2-yl)amino)phenyl)methanone]
11 | > 0.5 | > 0.5 | > 0.5 | 0.25 to 0.5 | > 0.5 | CN1CCC(Oc2ccc(Nc3nc(N4N=CCC4c4ccccc4)c4sccc4n3)cc2)CC1 (centres unmarked) [Example 13, N-(4-((1-methylpiperidin-4-yl)oxy)phenyl)-4-(5-phenyl-4,5-dihydro-1H-pyrazol-1-yl)thieno[3,2-d]pyrimidin-2-amine]
12 | > 0.5 | > 0.5 | > 0.5 | 0.25 to 0.5 | > 0.5 | CN1Cc2cc(Nc3nc(N4N=CCC4c4ccccc4)c4sccc4n3)ccc2C1=O (centres unmarked) [Example 25, 2-methyl-5-((4-(5-phenyl-4,5-dihydro-1H-pyrazol-1-yl)thieno[3,2-d]pyrimidin-2-yl)amino)isoindolin-1-one]
13 | > 0.5 | > 0.5 | > 0.5 | > 0.5 | > 0.5 | CN(C)CCCn1cc(Nc2nc(N3N=CCC3c3ccccc3)c3sccc3n2)cn1 (centres unmarked) [Example 26, N-(1-(3-(dimethylamino)propyl)-1H-pyrazol-4-yl)-4-(5-phenyl-4,5-dihydro-1H-pyrazol-1-yl)thieno[3,2-d]pyrimidin-2-amine]
14 | ≥ 0.25 | > 0.5 | > 0.5 | ≥ 0.25 | > 0.5 | C1=NN(c2nc(Nc3cnn(C4CCNCC4)c3)nc3ccsc23)C(c2ccccc2)C1 (centres unmarked) [Example 28, 4-(5-phenyl-4,5-dihydro-1H-pyrazol-1-yl)-N-(1-(piperidin-4-yl)-1H-pyrazol-4-yl)thieno[3,2-d]pyrimidin-2-amine]
15 | > 0.5 | > 0.5 | > 0.5 | 0.25 to 0.5 | > 0.5 | CN1CCC(n2cc(Nc3nc(N4N=CCC4c4ccccc4)c4sccc4n3)cn2)CC1 (centres unmarked) [Example 29, N-(1-(1-methylpiperidin-4-yl)-1H-pyrazol-4-yl)-4-(5-phenyl-4,5-dihydro-1H-pyrazol-1-yl)thieno[3,2-d]pyrimidin-2-amine]
16 | > 0.5 | – | > 0.5 | 0.25 to 0.5 | – | CCN(CC)CCOc1c(C)cc(Nc2nc(N3N=CCC3c3ccccc3)c3sccc3n2)cc1C (centres unmarked) [Example 46, N-(4-(2-(diethylamino)ethoxy)-3,5-dimethylphenyl)-4-(5-phenyl-4,5-dihydro-1H-pyrazol-1-yl)thieno[3,2-d]pyrimidin-2-amine]
17 | > 0.5 | – | > 0.5 | ≥ 0.25 | – | COc1cc(Nc2nc(N3N=CCC3c3ccccc3)c3sccc3n2)cc(OC)c1OC (centres unmarked) [Example 51, 4-(5-phenyl-4,5-dihydro-1H-pyrazol-1-yl)-N-(3,4,5-trimethoxyphenyl)thieno[3,2-d]pyrimidin-2-amine]
